Reference: US8551984B2, “Aminopyrimidines as SYK inhibitors” (Merck Sharp & Dohme Corp., priority 2009, dated 2013)
pIC50: −log10 of the molar value.

Target: recombinant human SYK (GST-hSYK fusion protein) (Homo sapiens, UniProt P43405)
Assay: biochemical
Details: rhSYK Activity, Table 54D
Description: Homogeneous Time-Resolved Fluorescence (HTRF) Assay for the Recombinant Human SYK Enzyme:

Row | Structure (SMILES) | pIC50
1 | Cc1cc(Nc2nccc(C(F)(F)F)n2)cc(-c2cnc(C3(O)CCCN(C(=O)CC(F)(F)F)CC3)s2)c1 (centres unmarked) [Example 54D-54] | > 7.00
2 | Cc1cc(Nc2nccc(C(F)(F)F)n2)cc(-c2cnc(C3(O)CCCN(C(=O)c4nnnn4C)CC3)s2)c1 (centres unmarked) [Example 54D-55] | > 7.00
3 | Cc1cc(Nc2nccc(C(F)(F)F)n2)cc(-c2cnc(C3(O)CCCN(C(=O)Cn4cnnn4)CC3)s2)c1 (centres unmarked) [Example 54D-56] | > 7.00
4 | Cc1cc(Nc2nccc(C(F)(F)F)n2)cc(-c2cnc(C3(O)CCCN(C(=O)C4CCC(=O)N4)CC3)s2)c1 (centres unmarked) [Example 54D-61] | > 7.00
5 | Cc1cc(Nc2nccc(C(F)(F)F)n2)cc(-c2cnc(C3(O)CCCN(C(=O)c4n[nH]c(=O)[nH]4)CC3)s2)c1 (centres unmarked) [Example 54D-62] | > 7.00
6 | Cc1cc(Nc2nccc(C(F)(F)F)n2)cc(-c2cnc(C3(O)CCCN(C(=O)C4CNC(=O)N4)CC3)s2)c1 (centres unmarked) [Example 54D-64] | > 7.00
7 | Cc1cc(Nc2nccc(C(F)(F)F)n2)cc(-c2cnc(C3(O)CCCN(C(=O)C4CCCCO4)CC3)s2)c1 (centres unmarked) [Example 54D-65] | > 7.00
8 | Cc1cc(Nc2nccc(C(F)(F)F)n2)cc(-c2cnc(C3(O)CCCN(C(=O)C4CCC(=O)O4)CC3)s2)c1 (centres unmarked) [Example 54D-66] | > 7.00
9 | Cc1cc(Nc2nccc(C(F)(F)F)n2)cc(-c2cnc(C3(O)CCCN(C(=O)CC4CCOC4)CC3)s2)c1 (centres unmarked) [Example 54D-67] | > 7.00
10 | Cc1cc(Nc2nccc(C(F)(F)F)n2)cc(-c2cnc(C3(O)CCCN(C(=O)C4CCCOC4)CC3)s2)c1 (centres unmarked) [Example 54D-68] | > 7.00
11 | Cc1cc(Nc2nccc(C(F)(F)F)n2)cc(-c2cnc(C3(O)CCCN(C(=O)C4(C(=O)O)CC4)CC3)s2)c1 (centres unmarked) [Example 54D-70] | > 7.00
12 | Cc1cc(Nc2nccc(C(F)(F)F)n2)cc(-c2cnc(C3(O)CCCN(C(=O)C4CC4C(=O)O)CC3)s2)c1 (centres unmarked) [Example 54D-71] | > 7.00
13 | COC(=O)CCC(=O)N1CCCC(O)(c2ncc(-c3cc(C)cc(Nc4nccc(C(F)(F)F)n4)c3)s2)CC1 (centres unmarked) [Example 54D-72] | > 7.00
14 | CCOC(=O)CC(=O)N1CCCC(O)(c2ncc(-c3cc(C)cc(Nc4nccc(C(F)(F)F)n4)c3)s2)CC1 (centres unmarked) [Example 54D-73] | > 7.00
15 | Cc1cc(Nc2nccc(C(F)(F)F)n2)cc(-c2cnc(C3(O)CCCN(C(=O)CCNC(N)=O)CC3)s2)c1 (centres unmarked) [Example 54D-76] | > 7.00
16 | Cc1cc(Nc2nccc(C(F)(F)F)n2)cc(-c2cnc(C3(O)CCCN(C(=O)C(O)C(C)(C)O)CC3)s2)c1 (centres unmarked) [Example 54D-77] | > 7.00
17 | Cc1cc(Nc2nccc(C(F)(F)F)n2)cc(-c2cnc(C3(O)CCCN(C(=O)C(C)(CO)CO)CC3)s2)c1 (centres unmarked) [Example 54D-78] | > 7.00
18 | Cc1cc(Nc2nccc(C(F)(F)F)n2)cc(-c2cnc(C3(O)CCCN(C(=O)Cc4cccnc4)CC3)s2)c1 (centres unmarked) [Example 54D-81] | > 7.00
19 | Cc1cc(Nc2nccc(C(F)(F)F)n2)cc(-c2cnc(C3(O)CCCN(C(=O)Cc4ccccn4)CC3)s2)c1 (centres unmarked) [Example 54D-82] | > 7.00
20 | Cc1cc(Nc2nccc(C(F)(F)F)n2)cc(-c2cnc(C3(O)CCCN(C(=O)CS(C)(=O)=O)CC3)s2)c1 (centres unmarked) [Example 54D-83] | > 7.00
21 | Cc1cc(Nc2nccc(C(F)(F)F)n2)cc(-c2cnc(C3(O)CCCN(C(=O)c4ccc(O)cc4)CC3)s2)c1 (centres unmarked) [Example 54D-84] | > 7.00
22 | Cc1cc(Nc2nccc(C(F)(F)F)n2)cc(-c2cnc(C3(O)CCCN(C(=O)c4ccc(O)cn4)CC3)s2)c1 (centres unmarked) [Example 54D-85] | > 7.00
23 | Cc1cc(Nc2nccc(C(F)(F)F)n2)cc(-c2cnc(C3(O)CCCN(C(=O)c4cccc(O)n4)CC3)s2)c1 (centres unmarked) [Example 54D-86] | > 7.00
24 | Cc1cc(Nc2nccc(C(F)(F)F)n2)cc(-c2cnc(C3(O)CCCN(C(=O)c4cc(O)ccn4)CC3)s2)c1 (centres unmarked) [Example 54D-87] | > 7.00
25 | Cc1cc(Nc2nccc(C(F)(F)F)n2)cc(-c2cnc(C3(O)CCCN(C(=O)CCc4cn[nH]c4)CC3)s2)c1 (centres unmarked) [Example 54D-88] | > 7.00
26 | Cc1cc(Nc2nccc(C(F)(F)F)n2)cc(-c2cnc(C3(O)CCCN(C(=O)CCC(F)(F)F)CC3)s2)c1 (centres unmarked) [Example 54D-90] | > 7.00
27 | Cc1cc(Nc2nccc(C(F)(F)F)n2)cc(-c2cnc(C3(O)CCCN(C(=O)CN4CCCC4=O)CC3)s2)c1 (centres unmarked) [Example 54D-91] | > 7.00
28 | Cc1cc(Nc2nccc(C(F)(F)F)n2)cc(-c2cnc(C3(O)CCCN(C(=O)C4CCCC(=O)N4)CC3)s2)c1 (centres unmarked) [Example 54D-92] | > 7.00
29 | Cc1cc(Nc2nccc(C(F)(F)F)n2)cc(-c2cnc(C3(O)CCCN(C(=O)Cc4n[nH]c(=O)[nH]4)CC3)s2)c1 (centres unmarked) [Example 54D-93] | > 7.00
30 | COC(=O)C1(C(=O)N2CCCC(O)(c3ncc(-c4cc(C)cc(Nc5nccc(C(F)(F)F)n5)c4)s3)CC2)CC1 (centres unmarked) [Example 54D-95] | > 7.00

The remaining lines, values ahead:

Row | pIC50 | Structure (SMILES)
31 | > 7.00 | Cc1cc(Nc2nccc(C(F)(F)F)n2)cc(-c2cnc(C3(O)CCCN(C(=O)CCC#N)CC3)s2)c1 (centres unmarked) [Example 54D-16]
32 | > 7.00 | Cc1cc(Nc2nccc(C(C)C)n2)cc(-c2cnc(C3(O)CCCN(C(=O)Cn4cnnn4)CC3)s2)c1 (centres unmarked) [Example 54D-19]
33 | > 7.00 | Cc1cc(Nc2nccc(C(F)(F)F)n2)cc(-c2cnc(C3(O)CCCN(C(=O)CC(N)=O)CC3)s2)c1 (centres unmarked) [Example 54D-22]
34 | > 7.00 | Cc1cc(Nc2nccc(C(F)(F)F)n2)cc(-c2cnc(C3(O)CCCN(C(=O)CC(C)O)CC3)s2)c1 (centres unmarked) [Example 54D-23]
35 | > 7.00 | Cc1cc(Nc2nccc(C(F)(F)F)n2)cc(-c2cnc(C3(O)CCCN(C(=O)CC(=O)O)CC3)s2)c1 (centres unmarked) [Example 54D-24]
36 | > 7.00 | Cc1cc(Nc2nccc(C(F)(F)F)n2)cc(-c2cnc(C3(O)CCCN(C(=O)C(O)CO)CC3)s2)c1 (centres unmarked) [Example 54D-27]
37 | > 7.00 | CCOC(=O)CC(=O)N1CCCC(O)(c2ncc(-c3cc(C)cc(Nc4nccc(C(C)C)n4)c3)s2)CC1 (centres unmarked) [Example 54D-30]
38 | > 7.00 | Cc1cc(Nc2nccc(C(C)C)n2)cc(-c2cnc(C3(O)CCCN(C(=O)C(C)(CO)CO)CC3)s2)c1 (centres unmarked) [Example 54D-31]
39 | > 7.00 | Cc1cc(Nc2nccc(C(F)(F)F)n2)cc(-c2cnc(C3(O)CCCN(C(=O)c4ncc[nH]4)CC3)s2)c1 (centres unmarked) [Example 54D-34]
40 | > 7.00 | Cc1cc(Nc2nccc(C(F)(F)F)n2)cc(-c2cnc(C3(O)CCCN(C(=O)C4CCCO4)CC3)s2)c1 (centres unmarked) [Example 54D-40]
41 | > 7.00 | Cc1cc(Nc2nccc(C(F)(F)F)n2)cc(-c2cnc(C3(O)CCCN(C(=O)CCC(=O)O)CC3)s2)c1 (centres unmarked) [Example 54D-43]
42 | > 7.00 | Cc1cc(Nc2nccc(C(F)(F)F)n2)cc(-c2cnc(C3(O)CCCN(C(=O)CC(C)(C)O)CC3)s2)c1 (centres unmarked) [Example 54D-44]
43 | > 7.00 | Cc1cc(Nc2nccc(C(F)(F)F)n2)cc(-c2cnc(C3(O)CCCN(C(=O)c4ccccc4)CC3)s2)c1 (centres unmarked) [Example 54D-45]
44 | > 7.00 | Cc1cc(Nc2nccc(C(F)(F)F)n2)cc(-c2cnc(C3(O)CCCN(C(=O)Cn4ccnc4)CC3)s2)c1 (centres unmarked) [Example 54D-46]
45 | > 7.00 | Cc1cc(Nc2nccc(C(F)(F)F)n2)cc(-c2cnc(C3(O)CCCN(C(=O)Cc4c[nH]cn4)CC3)s2)c1 (centres unmarked) [Example 54D-47]
46 | > 7.00 | Cc1cc(Nc2nccc(C(F)(F)F)n2)cc(-c2cnc(C3(O)CCCN(C(=O)c4cc(C)on4)CC3)s2)c1 (centres unmarked) [Example 54D-48]
47 | > 7.00 | Cc1cc(Nc2nccc(C(F)(F)F)n2)cc(-c2cnc(C3(O)CCCN(C(=O)Cn4cncn4)CC3)s2)c1 (centres unmarked) [Example 54D-49]
